Data published in US10947213B1 (Merck Patent GmbH, priority 2015, dated 2021).
Where a name gives a salt, the structure may show the parent alone.

Target: T1, TLR7/NFKb HEK cells (Homo sapiens, UniProt Q9NYK1)
T1 construct: expressed in transfected cells; host or cells: HEK cells (TLR7/NFKb reporter line)
T1 sequence (Q9NYK1 27-1049): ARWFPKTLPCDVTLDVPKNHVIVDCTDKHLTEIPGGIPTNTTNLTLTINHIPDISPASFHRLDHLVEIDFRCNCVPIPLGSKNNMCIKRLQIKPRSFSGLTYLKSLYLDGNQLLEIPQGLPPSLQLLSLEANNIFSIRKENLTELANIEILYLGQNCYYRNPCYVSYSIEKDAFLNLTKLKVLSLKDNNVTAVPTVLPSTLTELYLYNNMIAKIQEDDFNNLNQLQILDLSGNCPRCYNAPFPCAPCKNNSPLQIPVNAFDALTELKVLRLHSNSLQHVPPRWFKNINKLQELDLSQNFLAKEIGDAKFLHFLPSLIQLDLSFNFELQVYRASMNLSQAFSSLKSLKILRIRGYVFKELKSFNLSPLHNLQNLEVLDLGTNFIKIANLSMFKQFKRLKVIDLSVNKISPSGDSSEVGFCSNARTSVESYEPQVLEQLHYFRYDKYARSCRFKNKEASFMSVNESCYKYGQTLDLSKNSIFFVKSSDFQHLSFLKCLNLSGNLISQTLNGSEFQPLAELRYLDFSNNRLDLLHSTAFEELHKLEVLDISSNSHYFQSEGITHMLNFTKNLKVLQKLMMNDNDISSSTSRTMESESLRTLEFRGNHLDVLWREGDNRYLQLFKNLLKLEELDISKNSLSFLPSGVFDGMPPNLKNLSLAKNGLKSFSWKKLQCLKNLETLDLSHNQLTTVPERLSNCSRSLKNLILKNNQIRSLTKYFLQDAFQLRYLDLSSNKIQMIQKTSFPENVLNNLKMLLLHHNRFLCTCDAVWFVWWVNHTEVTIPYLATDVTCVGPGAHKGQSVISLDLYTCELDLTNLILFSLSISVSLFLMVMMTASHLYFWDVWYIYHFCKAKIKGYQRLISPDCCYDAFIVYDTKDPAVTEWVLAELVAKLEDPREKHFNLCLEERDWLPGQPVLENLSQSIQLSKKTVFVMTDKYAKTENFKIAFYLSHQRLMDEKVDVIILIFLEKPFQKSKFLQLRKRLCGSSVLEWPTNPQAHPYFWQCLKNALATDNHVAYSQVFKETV
Assay: HEK Cell Assay (TLR7/NFKb reporter, Steady-Glo luciferase readout)
Type: cell-based
Details: 30 min compound preincubation, then R*48 agonist for 5 hours, read-out: Potency
Method in brief: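 Steady-Glo luminescence after 5 h stimulation with R*48 agonist, following 30 min compound preincubation. Assay run in HEK cells carrying a TLR7/NFKb luciferase reporter, plated at 5000 cells/well and grown 24 h at 37° C (10% CO2) before treatment.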

IC50 [nM] | SMILES
1000 to 10000 | COc1ccc(N2C[C@@H](C)C[C@@H](NC(=O)C(N)C(F)(F)F)C2)c2cccnc12 (single isomer, unassigned) [Compound 192]
< 1000 | CC(C(=O)N[C@@H]1C[C@H](C)CN(c2ccc(C(F)(F)F)c3ncccc23)C1)N1CCC(O)CC1 (stereo partly drawn) [Compound 289, 2-(4-hydroxypiperidin-1-yl)-N-[(3R,5S)-5-methyl-1-[8-(trifluoromethyl)quinolin-5-yl]piperidin-3-yl]propanamide]
> 10000 | C[C@H]1C[C@@H](NC(=O)C(N)C(F)(F)F)CN(c2c(F)cc(C#N)c3nccnc23)C1 (single isomer, unassigned) [Compound 346]
< 1000 | C[C@H]1C[C@@H](N(C)C(=O)CN(C)C)CN(c2ccc(C(F)(F)F)c3ncccc23)C1 [Compound 452, 2-Dimethylamino-N-methyl-N-[(3R,5S)-5-methyl-1-(8-trifluoromethyl-quinolin-5-yl)-piperidin-3-yl]-acetamide]
> 10000 | C[C@@H]1CN(c2ccnc3nccnc23)C[C@H](C(=O)N2CC(N)C2)O1 [Compound 63, (3-aminoazetidin-1-yl)((2R,6R)-6-methyl-4-(pyrido[2,3-b]pyrazin-8-yl)morpholin-2-yl)methanone]
< 1000 | N#Cc1ccc(N2CC(N)CC(C(F)(F)F)C2)c2nccnc12 (single isomer, unassigned) [Compound 82]
> 10000 | CC(C)[C@H](O)C(=O)NC1CC(C(F)(F)F)CN(c2ccc(C#N)c3ncccc23)C1 (single isomer, unassigned) [Compound 429]
1000 to 10000 | N#Cc1ccc(N2CC(NC(=O)C(N)C(F)(F)F)CC(C3CC3)C2)c2nccnc12 (single isomer, unassigned) [Compound 177]
1000 to 10000 | CCN(C)CC(=O)NCC1CCN(c2ccnc3nccnc23)CC1 [Compound 408, 2-(Ethyl-methyl-amino)-N-(1-pyrido[2,3-b]pyrazin-8-yl-piperidin-4-ylmethyl)-acetamide]
< 1000 | CC(C(=O)N[C@@H]1C[C@H](C)CN(c2ccc(C(F)(F)F)c3ncccc23)C1)N1CC(N)C1 (stereo partly drawn) [Compound 281, 2-(3-aminoazetidin-1-yl)-N-[(3R,5S)-5-methyl-1-[8-(trifluoromethyl)quinolin-5-yl]piperidin-3-yl]propanamide]
< 1000 | C[C@H]1C[C@@H](NC(=O)CC(C)(C)C)CN(c2ccc(C(F)F)c3ncccc23)C1 [Compound 205, N-[(3R,5S)-1-[8-(difluoromethyl)quinolin-5-yl]-5-methylpiperidin-3-yl]-3,3-dimethylbutanamide]
1000 to 10000 | Cc1ncc(N2C[C@@H](C)C[C@@H](NC(=O)[C@H](O)C3CC3)C2)c2cccnc12 [Compound 558, (R)-2-Cyclopropyl-2-hydroxy-N-[(3R,5S)-5-methyl-1-(8-methyl-[1,7]naphthyridin-5-yl)-piperidin-3-yl]-acetamide]
> 10000 | C[C@H]1C[C@@H](NC(=O)C2(N)CC2)CN(c2ccnc3nccnc23)C1 [Compound 30, 1-amino-N-((3R,5S)-5-methyl-1-(pyrido[2,3-b]pyrazin-8-yl)piperidin-3-yl)cyclopropanecarboxamide hydrochloride]
> 10000 | COCCN[C@@H]1C[C@H](C)CN(c2ccc(C(N)=O)c3ncccc23)C1 [Compound 183, 5-[(3R,5S)-3-[(2-methoxyethyl)amino]-5-methylpiperidin-1-yl]quinoline-8-carboxamide]
< 1000 | N#Cc1ccc(N2CC(NC3CCC(O)CC3)CC(C(F)(F)F)C2)c2nccnc12 (single isomer, unassigned) [Compound 91, cis,cis-8-(3-((4-hydroxycyclohexyl)amino)-5-(trifluoromethyl)piperidin-1-yl)quinoxaline-5-carbonitrile]

The remaining lines, values behind:

SMILES | IC50 [nM]
C[C@H]1C[C@@H](NC(=O)Cc2c[nH]cn2)CN(c2ccc(C#N)c3nccnc23)C1 [Compound 130, N-[(3R,5S)-1-(8-cyanoquinoxalin-5-yl)-5-methylpiperidin-3-yl]-2-(1H-imidazol-4-yl)acetamide hydrochloride] | < 1000
N#Cc1ccc(N2C[C@H](NCCC(F)(F)F)C[C@H](C(F)(F)F)C2)c2nccnc12 (relative stereo) [Compound 95, cis-8-[3-(trifluoromethyl)-5-[(3,3,3-trifluoropropyl)amino]piperidin-1-yl]quinoxaline-5-carbonitrile] | 1000 to 10000
CC1(C)C[C@@H](NC(=O)CO)CN(c2ccc(C#N)c3nccnc23)C1 [Compound 218, N-[(3R)-1-(8-cyanoquinoxalin-5-yl)-5,5-dimethylpiperidin-3-yl]-2-hydroxyacetamide] | 1000 to 10000
Cc1ccc(N2C[C@H](N)C[C@H](C(F)(F)F)C2)c2cccnc12 [Compound 586, (3R,5S)-1-(8-Methyl-quinolin-5-yl)-5-trifluoromethyl-piperidin-3-ylamine hydrochloride] | < 1000
C[C@@H]1CN(c2ccnc3nccnc23)C[C@H](CN2CCN(C)C(C)(C)C2)O1 [Compound 54, (2R,6S)-2-methyl-4-(pyrido[2,3-b]pyrazin-8-yl)-6-((3,3,4-trimethylpiperazin-1-yl)methyl)morpholine] | < 1000
N#Cc1ccc(N2C[C@@H](N)C[C@@H](F)C2)c2nccnc12 [Compound 501, 8-((3S,5R)-3-Amino-5-fluoro-piperidin-1-yl)-quinoxaline-5-carbonitrile hydrochloride] | > 10000
C[C@H]1C[C@@H](NC(=O)C(N)C2CC2)CN(c2ccc(C(F)F)c3ncccc23)C1 (stereo partly drawn) [Compound 306, 2-amino-2-cyclopropyl-N-[(3R,5S)-1-[8-(difluoromethyl)quinolin-5-yl]-5-methylpiperidin-3-yl]acetamide] | < 1000
Cc1ncc(N2C[C@@H](C)C[C@@H](NC(=O)CC3(N)CCCCC3)C2)c2cccnc12 [Compound 563, 2-(1-Amino-cyclohexyl)-N-[(3R,5S)-5-methyl-1-(8-methyl-[1,7]naphthyridin-5-yl)-piperidin-3-yl]-acetamide] | < 1000
COCCN[C@@H]1C[C@H](C)CN(c2c(F)cc(C#N)c3nccnc23)C1 [Compound 344, 7-fluoro-8-[(3R,5S)-3-[(2-methoxyethyl)amino]-5-methylpiperidin-1-yl]quinoxaline-5-carbonitrile] | 1000 to 10000
C[C@H]1C[C@@H](N)CN(c2ccc(F)c3ncccc23)C1 [Compound 341, (3R,5S)-1-(8-fluoroquinolin-5-yl)-5-methylpiperidin-3-amine] | < 1000
CN(C)C(=O)CCC(=O)N1CCN(c2ccc(C#N)c3nccnc23)CC1 [Compound 454, 4-[4-(8-Cyano-quinoxalin-5-yl)-piperazin-1-yl]-N,N-dimethyl-4-oxo-butyramide] | 1000 to 10000
Cc1ncc(N2C[C@@H](C)C[C@@H](NC(=O)CC3CN(C(=O)OC(C)(C)C)C3)C2)c2cccnc12 [Compound 557, 3-{[(3R,5S)-5-Methyl-1-(8-methyl-[1,7]naphthyridin-5-yl)-piperidin-3-ylcarbamoyl]-methyl}-azetidine-1-carboxylic Acid tert-butyl ester] | 1000 to 10000
N#Cc1ccc(N2CC(N)CC(F)(F)C2)c2nccnc12 (single isomer, unassigned) [Compound 76] | 1000 to 10000
C[C@H]1C[C@@H](N2CC[C@@H](N)C2=O)CN(c2ccnc3nccnc23)C1 [Compound 42, (3R)-3-amino-1-[(3R,5S)-5-methyl-1-[pyrido[2,3-b]pyrazin-8-yl]piperidin-3-yl]pyrrolidin-2-one] | > 10000
